Measured values taken from US20160158245A1, “PHARMACEUTICAL FORMULATION CONTAINING THIENOTRIAZOLODIAZEPINE COMPOUNDS” (ONCOETHIX GmbH, priority 2013, published 2016).

Experiments:
Assay type in all cases: cell-based
[1] = test system: ALL cell lines; experiment: MTT assay, statement over all ALL cell lines; conditions: MTT at 72 h, span over ALL cell lines; read-out: GI50 across all ALL cell lines
Description: (§1) Different representative cell lines for ALL including Jurkat cells (T-ALL), RS 4-11 (MLL-AF4 B-precursor ALL), TO′M-1, BV173 (both Ph+ALL) and AML including K562 (Ph+CML in blast crisis,), HL-60 (NRAS driven AML2), NOMO1 (MLL-AF9 driven AML), KG1 (BMP-FGRF+AML6) and its more immature subtype KG1a were cultured in RPMI 1640 (Gibco Invitrogen, Basel, Switzerland) supplemented with 10% or 20% heat-inactivated fetal calf serum respectively, 2 mM L-glutamine, 100 IU/mL penicillin, and 100 µg/mL streptomycin.
MTT-assay: cells were seeded first into 24-well plates at the density of […] per well to avoid variations of concentrations in smaller volumes and treated with different doses of OTX015 prepared freshly from 1 mM stock solution in DMSO. Cells were transferred to 96-well plates for MTT-assay. Untreated cells and cells treated with equal amounts of DMSO (0.2-1%) used for dilution of OTX015 were used as controls. The 3-(4,5-dimethylthiazol-2-yl)-2,5-diphenyltetrazolium bromide (MTT) (Molecular Probes, Eugene, USA) was prepared as a stock of 5 mg/ml in PBS. […] Cells were then lysed with 25% SDS lysis buffer and absorbance was read at 570 nm. […] GI50 values were calculated with Prism v5 software (GraphPad Inc., La Jolla, USA).
(§2) AML and ALL cell lines were exposed to increasing concentrations of compound (1-1), (0.1 nM-10 μM). […] GI50 values were expressed as means from 3 independent experiments.

[2] = test system: BRD4, BRD3 and c-MYC in K562; experiment: Immunoblot (protein level) in K562; conditions: K562, 500 nM, starting after 24 h
Description: (§3) FIGS. 43A-43L illustrate effects of OTX015 at the protein level for BRD 4, BRD2 and BRD 3 as well as c-MYC. […] AML cell lines HL60, K562 (FIGS. 43A-43C; FIG. 43D-43F) and ALL cell lines Jurkat and RS4-11 (FIG. 43G-43I; FIG. 4JD-43L) were treated with OTX015 at 500 nM and compared to controls exposed to according DMSO. At indicated time-points proteins were extracted and immunoblotted with BRD4, BRD3, BRD2 or c-MYC antibodies after gel electrophoresis. […] One representative experiment out of three is shown.
(§4) The membranes were blocked with LiCor blocking buffer (LiCor, Lincoln, Nebr., USA) and incubated with the respective primary antibody: anti-BRD4 (Epitomics 5716-1, Burlingame, USA), anti-BRD3 (ab56342, AbCam, UK), anti-BRD2 (ab37633, AbCam, UK), anti c-MYC (sc-764 (N262), Santa Cruz, USA) and anti-GAPDH (Invitrogen 398600, Grand Island, USA). Blots were stained with either goat anti-rabbit InfraRedDye 680RD or goat anti-mouse InfraRedDye 800CWsecondary antibody (LiCor). Membranes were imaged using a LiCor Odyssey scanner. Boxes were manually placed around each band of interest, which returned near-infrared fluorescent values of raw intensity with intra-lane background subtracted using Odyssey 3.0 analytical software (LiCor).

[3] = test system: KG1; experiment: MTT assay; conditions: Homo sapiens, KG-1; KG1, MTT at 72 h
Description: as §1
(§5) MTT-assay: cells were seeded first into 24-well plates at the density of […] per well to avoid variations of concentrations in smaller volumes and treated with different doses of OTX015 prepared freshly from 1 mM stock solution in DMSO. Cells were transferred to 96-well plates for MTT-assay. Untreated cells and cells treated with equal amounts of DMSO (0.2-1%) used for dilution of OTX015 were used as controls. The 3-(4,5-dimethylthiazol-2-yl)-2,5-diphenyltetrazolium bromide (MTT) (Molecular Probes, Eugene, USA) was prepared as a stock of 5 mg/ml in PBS. 0.5 mg/mL of MTT solution was then added per well and incubated in the dark at 37° C. for 4 h. Cells were then lysed with 25% SDS lysis buffer and absorbance was read at 570 nm. Two independent experiments were run for each cell line. GI50 values were calculated with Prism v5 software (GraphPad Inc., La Jolla, USA).
as §2

[4] = test system: Jurkat; experiment: MTT assay; conditions: Homo sapiens, MTT at 72 h
Description: as §1, §5, §2

[5] = test system: BV-173; experiment: MTT assay; conditions: Homo sapiens; BV-173, MTT at 72 h
Description: as §1, §5, §2

[6] = test system: HL60; experiment: MTT assay; conditions: Homo sapiens, HL-60, HL60, MTT at 72 h
Description: as §1, §5, §2

[7] = test system: RS4-11; experiment: MTT assay; conditions: Homo sapiens; RS4-11, MTT at 72 h
Description: as §1, §5, §2

[8] = test system: NOMO1; experiment: MTT assay; conditions: Homo sapiens, NOMO-1; NOMO1, MTT at 72 h
Description: as §1, §5, §2

[9] = test system: KG1a; experiment: MTT assay; conditions: Homo sapiens, KG-1a, MTT at 72 h
Description: as §1, §5, §2

[10] = test system: TOM-1; experiment: MTT assay; conditions: TOM-1, MTT at 72 h
Description: as §1, §5, §2

[11] = test system: K562; experiment: MTT assay; conditions: Homo sapiens, K562, 72 h, K562, MTT at 72 h
Description: as §1, §5, §2

[12] = test system: BRD4, BRD3 and c-MYC in HL60; experiment: Immunoblot (protein level) in HL60; conditions: HL60, 500 nM
Description: as §3, §4

[13] = test system: c-MYC in BM cells of patient 5; experiment: Immunoblot of c-MYC in patient bone marrow cells treated ex vivo; conditions: BM cells of patient 5, 250 and 500 nM, 72 h
Description: FIGS. 45A-45E illustrate modulation of c-MYC at the protein level in a patient sample. Protein extracts were obtained from bone marrow (BM) cells of patient 5 (FIG. 44D; FIGS. 45A-45D) upon ex vivo treatment with 250 and 500 nM of OTX015 respectively. […] Bone marrow cells from patient 5 were treated with OTX015 at 250 nM and 500 nM and compared to controls exposed to according concentrations with DMSO. Proteins were extracted at 72 h and immunoblotted with appropriate c-MYC antibodies after gel electrophoresis. […] Expression level of cMYC relative to ABL were realised by RQ-PCR at three time points 24, 48 and 72 h (FIG. 45B). Results in FIG. 45B are shown with means±SD from duplicates.
as §4, with “Boxes were manually placed around each band of interest, which returned near-infrared fluorescent values of raw intensity with intra-lane background subtracted using Odyssey 3.0 analytical software (LiCor).” left out

- GI50 [4]: 250 nM
- GI50 [6]: 1310 nM
- IC50 ([6]; read-out: GI value): 1300 nM
- GI50 [7]: 34.2 nM
- GI50 [11]: 11.3 µM
- GI50 ([11]; mean of 3 independent experiments): 11.3 µM
SMILES: Cc1sc2c(c1C)C(c1ccc(Cl)cc1)=N[C@@H](CC(=O)Nc1ccc(O)cc1)c1nnc(C)n1-2 [Compound (1-1), 2-[(6S)-4-(4-chlorophenyl)-2,3,9-trimethyl-6H-thienol[3,2-f]-[1,2,4]triazolo[4,3-a][1,4]diazepin-6-yl]-N-(4-hydroxyphenyl)acetamide dihydrate]
- GI50 [1]: 34.2 to 250 nM
- BRD4, BRD3 and c-MYC protein level [2]: downregulation of BRD4, BRD3 and c-MYC
- GI50 [3]: 198 nM
- GI50 [5]: 161 nM
- GI50 [8]: 229 nM
- GI50 [9]: 1340 nM
- IC50 ([9]; read-out: GI value): 1300 nM
- GI50 [10]: 133 nM
- c-MYC protein level ([12]; 24 h): transient downregulation
- BRD4 and BRD3 protein level ([12]; 72 h): remained unaffected
- c-MYC protein level [13]: downregulation of c-MYC
